{"source": "patent US20120184517A1", "about": "“TREATMENT OF DISEASES WITH ALTERED SMOOTH MUSCLE CONTRACTILITY” (priority 2009, published 2012)", "key": {"[1]": {"biological_target": "T1, BK currents in tracheal smooth muscle (Mus musculus, UniProt Q08460)", "T1 construct": "murine tracheal smooth muscle cells were acutely isolated and whole cell patch clamped; endogenous in cells; host or cells: acutely isolated murine tracheal smooth muscle cells", "T1 sequence (Q08460 whole entry)": "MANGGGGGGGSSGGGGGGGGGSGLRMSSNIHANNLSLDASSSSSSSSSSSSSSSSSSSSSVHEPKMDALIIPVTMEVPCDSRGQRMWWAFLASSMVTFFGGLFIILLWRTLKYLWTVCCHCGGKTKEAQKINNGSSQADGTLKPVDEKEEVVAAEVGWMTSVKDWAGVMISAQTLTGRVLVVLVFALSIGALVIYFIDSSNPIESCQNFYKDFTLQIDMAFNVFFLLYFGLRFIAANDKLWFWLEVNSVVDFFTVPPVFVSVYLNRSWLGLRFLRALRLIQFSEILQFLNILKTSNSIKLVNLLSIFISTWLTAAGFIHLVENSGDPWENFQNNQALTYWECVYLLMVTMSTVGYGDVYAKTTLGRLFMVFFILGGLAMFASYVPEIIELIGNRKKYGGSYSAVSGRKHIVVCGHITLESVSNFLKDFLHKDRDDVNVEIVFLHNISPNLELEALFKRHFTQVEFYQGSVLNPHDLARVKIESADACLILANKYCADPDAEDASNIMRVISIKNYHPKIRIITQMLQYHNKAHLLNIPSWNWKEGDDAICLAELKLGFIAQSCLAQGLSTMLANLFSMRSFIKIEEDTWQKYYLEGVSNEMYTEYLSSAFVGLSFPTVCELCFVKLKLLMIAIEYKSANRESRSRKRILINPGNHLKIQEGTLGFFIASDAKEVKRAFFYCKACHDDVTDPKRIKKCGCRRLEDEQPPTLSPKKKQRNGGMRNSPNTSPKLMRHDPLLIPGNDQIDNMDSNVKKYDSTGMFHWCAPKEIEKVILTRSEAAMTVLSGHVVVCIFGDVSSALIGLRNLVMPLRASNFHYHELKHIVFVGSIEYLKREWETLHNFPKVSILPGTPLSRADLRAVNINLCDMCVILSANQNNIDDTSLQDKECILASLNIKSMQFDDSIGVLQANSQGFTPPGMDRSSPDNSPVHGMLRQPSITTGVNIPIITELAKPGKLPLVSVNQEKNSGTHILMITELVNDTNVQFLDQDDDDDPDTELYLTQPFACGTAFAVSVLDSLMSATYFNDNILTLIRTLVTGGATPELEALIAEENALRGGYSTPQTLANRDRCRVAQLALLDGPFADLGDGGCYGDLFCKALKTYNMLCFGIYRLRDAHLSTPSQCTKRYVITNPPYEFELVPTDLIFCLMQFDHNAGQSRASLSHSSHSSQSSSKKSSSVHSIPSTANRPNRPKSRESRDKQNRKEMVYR", "T1 sequence (Q8CAE3 whole entry partner)": "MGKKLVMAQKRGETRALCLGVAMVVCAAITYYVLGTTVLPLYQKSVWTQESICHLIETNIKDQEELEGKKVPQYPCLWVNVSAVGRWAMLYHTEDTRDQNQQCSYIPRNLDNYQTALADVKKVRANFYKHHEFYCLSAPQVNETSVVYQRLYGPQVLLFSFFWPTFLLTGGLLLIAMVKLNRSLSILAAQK", "assay": "Whole cell patch clamp of acutely isolated tracheal smooth muscle cells", "assay_type": "cell-based, murine", "parameters": "unit of the concentration uncertain", "settings": "rottlerin (1 (unit uncertain)), FIG. 11A", "from_the_text": "(§1) In this experiment, murine tracheal smooth muscle cells were acutely isolated and whole cell patch clamped as previously described (Zakharov, S. et al., (2005) J Biol Chem 280, 30882-30887).\nMurine tracheal smooth muscle cells were isolated using the following protocol. Trachea were removed, cut longitudinally, the epithelium removed (brushing with sterile cotton bud) and the cartilage removed by cutting. The isolated trachea were dissected in culture medium and cut into several pieces (1-2 mm^2). After addition of 0.5 mg/ml papain (Roche, Nutley, N.J.) and 1 mg/ml dithiothreitol, the cells were dissociated at 37° C. for 20 minutes, gently shaking, followed by the addition of 0.1 mg/ml liberase enzyme 2 (Roche, Nutley, N.J.) for 30 minutes at 37° C. (5% CO2). The suspension was then pipetted gently several times to disburse cells, the cell suspension strained via a nylon cell strainer, and the suspension was gently triturated to disburse single cells. The cell suspension was then centrifuged at 700×g for 5 minutes and the pellet resuspended in 500 μl Krebs solution. The cells were plated onto laminin-coated tissue culture dishes. BK currents were recorded using whole-cell and outside-out macropatches."}, "PKCδ": {"biological_target": "PKCδ (Homo sapiens, UniProt Q05655)", "sequence (Q05655 whole entry)": "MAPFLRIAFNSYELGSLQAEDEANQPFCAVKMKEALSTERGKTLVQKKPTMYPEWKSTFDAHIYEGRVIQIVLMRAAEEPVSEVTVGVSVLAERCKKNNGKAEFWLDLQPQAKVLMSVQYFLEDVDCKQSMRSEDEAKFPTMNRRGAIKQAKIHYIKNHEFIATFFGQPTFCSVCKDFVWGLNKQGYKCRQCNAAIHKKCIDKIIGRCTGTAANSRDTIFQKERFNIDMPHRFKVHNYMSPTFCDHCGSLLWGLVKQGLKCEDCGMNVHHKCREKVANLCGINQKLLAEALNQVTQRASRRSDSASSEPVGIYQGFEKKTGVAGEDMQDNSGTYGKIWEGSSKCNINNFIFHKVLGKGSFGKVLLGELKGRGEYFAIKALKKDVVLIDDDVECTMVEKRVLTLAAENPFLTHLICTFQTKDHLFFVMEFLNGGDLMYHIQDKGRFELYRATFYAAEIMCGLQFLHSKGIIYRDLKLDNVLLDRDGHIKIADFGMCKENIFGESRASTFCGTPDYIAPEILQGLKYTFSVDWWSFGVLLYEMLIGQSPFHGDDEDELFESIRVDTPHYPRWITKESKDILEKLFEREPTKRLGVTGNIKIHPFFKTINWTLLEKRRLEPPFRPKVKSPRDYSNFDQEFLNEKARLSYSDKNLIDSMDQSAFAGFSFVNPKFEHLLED", "settings": "rottlerin 20 μM, 0.1 mM ATP, phosphatidylserine; cited from earlier work"}, "[2]": {"biological_target": "T2, BKCa channel α (mSlo) and β1 subunits (Mus musculus, UniProt Q08460)", "T2 construct": "expressed in transfected cells; host or cells: HEK293", "T2 sequence (Q08460 whole entry)": "as the sequence (Q08460 whole entry) above", "assay": "Whole cell recording of HEK cells co-expressing α and β1 subunits", "assay_type": "cell-based", "settings": "HEK293 cells expressing both mSlo and β1 subunit", "description": "(§2) Current was monitored with a ramp protocol; holding potential −60 mV, with ramp from −80 mV to +150 mV over 500 ms. Extracellular application of NS-1619 (10 μM) increased current as previously described (Olesen, et al., Selective activation of Ca^2+-dependent K^+ channels by novel benzimidazolone. Eur. J. Pharmacol., 1994. 251(1):53-9). […] Analysis was performed using tail analysis with normalization as previously described (Xia, et al., Multiple regulatory sites in large-conductance calcium-activated potassium channels. Nature, 2002. 418(6900):880-4). […] Identification of the BKCa channel was determined by conductance and inhibition by iberiotoxin and TEA. […] Murine femoral arterial rings were isolated and placed in a wire myograph. […] The figures shown are representative of 4 similar experiments. Error bars are standard error of the mean (SEM). Asterisk (*) indicates p<0.001."}, "other PKC isozymes": {"system": "other PKC isozymes", "settings": "cited from earlier work"}, "[3]": {"system": "canine subarachnoid hemorrhage model", "settings": "5 μM injected into the cistera magna; cited from earlier work"}, "[4]": {"biological_target": "mitogen- and stress-activated protein kinase 1 (MSK-1) (Homo sapiens, UniProt O75582)", "sequence (O75582 whole entry, species assumed)": "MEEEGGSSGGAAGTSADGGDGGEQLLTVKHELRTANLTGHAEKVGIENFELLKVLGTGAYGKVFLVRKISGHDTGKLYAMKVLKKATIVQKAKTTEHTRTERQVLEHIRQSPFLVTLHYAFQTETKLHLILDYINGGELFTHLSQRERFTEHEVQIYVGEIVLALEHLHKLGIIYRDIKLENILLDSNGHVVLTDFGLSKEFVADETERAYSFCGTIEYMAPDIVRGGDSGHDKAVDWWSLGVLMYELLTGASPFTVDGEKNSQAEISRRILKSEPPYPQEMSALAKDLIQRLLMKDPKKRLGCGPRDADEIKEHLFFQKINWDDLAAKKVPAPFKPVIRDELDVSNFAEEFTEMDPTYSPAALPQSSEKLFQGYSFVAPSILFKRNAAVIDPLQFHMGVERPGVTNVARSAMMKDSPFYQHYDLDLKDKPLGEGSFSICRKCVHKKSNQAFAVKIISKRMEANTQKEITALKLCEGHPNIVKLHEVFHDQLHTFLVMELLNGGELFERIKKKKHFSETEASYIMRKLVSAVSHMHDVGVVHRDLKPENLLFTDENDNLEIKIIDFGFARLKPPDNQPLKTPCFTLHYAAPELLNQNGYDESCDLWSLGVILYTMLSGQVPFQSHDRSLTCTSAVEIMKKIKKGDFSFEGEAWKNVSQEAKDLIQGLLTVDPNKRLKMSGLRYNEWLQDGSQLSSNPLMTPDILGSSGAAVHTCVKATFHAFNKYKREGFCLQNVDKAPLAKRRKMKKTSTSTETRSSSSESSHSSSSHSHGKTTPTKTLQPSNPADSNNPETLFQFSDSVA", "settings": "20 μM; cited from earlier work"}, "recombinant BK (mSlo1)": {"biological_target": "T3, recombinant BK (mSlo1) (Mus musculus, UniProt Q08460)", "T3 construct": "expressed in transfected cells", "T3 sequence (Q08460 whole entry)": "as the sequence (Q08460 whole entry) above", "assay": "Cell-free outside-out/inside-out patch single channel recordings from HEK cells", "assay_type": "biochemical, murine", "protocol": "Ca^2+ was maintained at 0 (virtual; actual <20 nM) through dialysis using a patch pipette."}, "[5]": {"biological_target": "glutamate-aspartate transporter (GLAST) (Homo sapiens, UniProt P43003)", "sequence (P43003 whole entry, species assumed)": "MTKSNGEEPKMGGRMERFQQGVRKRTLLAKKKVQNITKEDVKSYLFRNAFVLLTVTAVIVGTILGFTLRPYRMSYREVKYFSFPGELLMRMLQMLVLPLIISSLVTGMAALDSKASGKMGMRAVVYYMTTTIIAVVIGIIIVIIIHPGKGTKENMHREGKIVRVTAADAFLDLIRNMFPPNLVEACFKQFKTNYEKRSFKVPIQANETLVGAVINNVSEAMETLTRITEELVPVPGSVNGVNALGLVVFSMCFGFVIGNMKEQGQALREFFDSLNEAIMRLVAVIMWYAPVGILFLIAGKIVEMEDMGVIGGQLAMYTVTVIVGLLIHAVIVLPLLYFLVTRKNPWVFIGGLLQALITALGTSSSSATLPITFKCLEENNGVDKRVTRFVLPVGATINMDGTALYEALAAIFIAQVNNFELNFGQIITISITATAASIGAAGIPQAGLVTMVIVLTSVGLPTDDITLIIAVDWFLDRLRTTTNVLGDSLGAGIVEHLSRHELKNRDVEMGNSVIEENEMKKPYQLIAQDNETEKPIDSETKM", "settings": "cited from earlier work"}, "[6]": {"system": "murine femoral arterial rings", "assay_type": "cell-based", "description": "as §2, with “ms.” for “ms. Extracellular application of NS-1619 (10 μM) increased current as previously described (Olesen, et al., Selective activation of Ca^2+-dependent K^+ channels by novel benzimidazolone. Eur. J. Pharmacol., 1994. 251(1):53-9).”"}, "OVA-sensitized mice": {"system": "OVA-sensitized mice", "assay": "OVA-asthma model, single i.v. dose before airway resistance measurement", "assay_type": "in vivo", "description": "Groups of mice received an I.P. injection of OVA/Alum complex on days 0 and 7 and on alternate days 14-22, a 20 minute aerosol challenge of either PBS or 2% (w/v) OVA in PBS, using an ultrasonic nebulizer (FIG. 22A)."}, "WT tracheal rings": {"system": "WT tracheal rings", "assay": "Isoproterenol-induced relaxation of WT tracheal rings on a myograph", "assay_type": "cell-based, murine", "settings": "rottlerin compared to PBS", "description": "(n=4 each). Asterisk (*) indicates P<0.05 versus vehicle (DMSO). […] Cumulative dose-response curves of WT tracheal rings to isoproterenol in the absence and presence of 100 nM iberiotoxin (IbTX), a specific BK channel inhibitor. Values in graphs are means±standard deviation.\nas §1\nTo dissect which (or both) β-AR pathways are responsible for the effects, tracheal rings were pre-incubated with either β1-AR antagonist (CGP 20712A; 100 nM) or a β2-AR antagonist (ICI 118551; 100 nM) or vehicle (DMSO). […] To confirm that the isoproterenol-induced relaxation was dependent upon BK channel-induced hyperpolarization, IbTX, a specific inhibitor of the BK channel, was used."}, "Akt": {"biological_target": "Akt (Homo sapiens, UniProt P31749)", "sequence (P31749 whole entry)": "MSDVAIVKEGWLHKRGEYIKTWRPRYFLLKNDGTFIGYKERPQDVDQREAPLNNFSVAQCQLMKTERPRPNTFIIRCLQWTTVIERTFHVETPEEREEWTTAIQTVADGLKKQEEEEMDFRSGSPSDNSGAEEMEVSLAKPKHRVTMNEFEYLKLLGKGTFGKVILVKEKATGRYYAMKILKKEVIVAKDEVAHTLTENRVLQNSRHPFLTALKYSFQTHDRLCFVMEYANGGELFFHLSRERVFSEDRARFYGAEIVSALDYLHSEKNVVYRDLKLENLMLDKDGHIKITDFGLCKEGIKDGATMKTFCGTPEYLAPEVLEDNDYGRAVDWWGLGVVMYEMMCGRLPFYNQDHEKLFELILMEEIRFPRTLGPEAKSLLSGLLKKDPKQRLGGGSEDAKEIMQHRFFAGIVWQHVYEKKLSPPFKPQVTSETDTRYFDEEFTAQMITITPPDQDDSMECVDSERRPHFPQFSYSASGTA", "settings": "20 μM; cited from earlier work"}, "tracheal rings": {"system": "tracheal rings", "assay": "Isoproterenol-induced relaxation of tracheal rings from PBS- and OVA-sensitized animals", "assay_type": "cell-based, murine", "parameters": "isoproterenol-induced relaxation: dose or concentration left out as unconfirmed", "description": "The isoproterenol-induced relaxation of tracheal rings from OVA-sensitized asthmatic animals was also tested. After induction of asthma, tracheal rings were removed and mounted on the myograph. […] At the conclusion of the experiment, each tracheal ring was exposed to methacholine to ensure viability of the ring and equivalent constriction.\nAfter induction of asthma, tracheal rings were removed and mounted on the myograph. […] The ISO-relaxation curve was shifted downward and to the right, with the maximal relaxation response reduced to only ˜25% from more than 60%."}}, "note": "“Also recorded” adds a separate entry of the source.", "data": [{"smiles": "CC(=O)c1c(O)c(C)c(O)c(Cc2c(O)c3c(c(C(=O)/C=C/c4ccccc4)c2O)OC(C)(C)C=C3)c1O", "note": "[rottlerin, 5,7-dihydroxy-2,2-dimethyl-6-(2,4,6-trihydroxy-3-methyl-5-acetylbenzyl)-8-cinnamoyl-I,2-chromene]", "values": [{"measurement": "BK currents", "setting": "[1]", "result": "significantly activated"}, {"measurement": "effect on PKCδ activity", "setting": "PKCδ", "result": "virtually no effect"}, {"measurement": "channel activation", "setting": "[2]", "result": "activated the channel"}, {"measurement": "IC50", "setting": "other PKC isozymes", "result": "30 to 100", "unit": "µM"}, {"measurement": "cerebral vasospasm", "setting": "[3]", "result": "inhibited the initial phase of cerebral vasospasm"}, {"measurement": "inhibition", "setting": "[4]", "result": 62, "unit": "%"}, {"measurement": "channel open probability", "setting": "recombinant BK (mSlo1); 0.5 μM rottlerin, outside-out patches from HEK cells, absence of ATP", "result": "significant increase"}, {"measurement": "experiments in which activation was found", "setting": "recombinant BK (mSlo1); rottlerin 0.5 μM bath application, outside-out patch, +30 mV, n=18", "result": 100, "unit": "%"}, {"measurement": "channel conductance", "setting": "recombinant BK (mSlo1); rottlerin 0.5 μM, outside-out, 0 Ca2+", "result": "does not significantly change"}, {"measurement": "capacity of GLAST", "setting": "[5]", "result": "decrease the capacity"}, {"measurement": "PE induced constriction of the vessel", "setting": "[6]; rottlerin 0.5 μM (FIG. 7D legend)", "result": "significantly inhibited"}, {"measurement": "effect on phenylephrine mediated contraction", "setting": "[6]; rottlerin 1 μM", "result": "no significant effect"}, {"measurement": "reduction of phenylephrine mediated contraction", "setting": "[6]; rottlerin 4 μM", "result": "more than 50%"}, {"measurement": "β-agonist mediated relaxation of the airway", "setting": "OVA-sensitized mice; Rottlerin (5 μg/g) in combination with Isoproterenol (2.5 μg/g), tail vein", "result": "increased β-agonist mediated relaxation of the airway"}, {"measurement": "time to reduction of AHR", "setting": "OVA-sensitized mice; single I.V. administration", "result": "≤ 5", "unit": "min"}, {"measurement": "airway resistance (RL)", "setting": "OVA-sensitized mice; single dose 5 μg/g I.V. 5 minutes before measurement, OVA-sensitized mice", "result": "significant decrease in their RL; also recorded: significantly reduced airway resistance"}, {"measurement": "ISO-induced relaxation", "setting": "WT tracheal rings", "result": "enhanced the ISO-induced relaxation"}, {"measurement": "inhibition", "setting": "Akt", "result": 73, "unit": "%"}, {"measurement": "maximal relaxation response to isoproterenol", "setting": "tracheal rings; OVA-sensitized rings, acute rottlerin in the bath 2 minutes prior to ISO", "result": "~45", "unit": "%"}, {"measurement": "isoproterenol-induced relaxation", "setting": "tracheal rings; PBS-treated (control) animals", "result": "enhanced the isoproterenol-induced relaxation"}]}]}
